pKi: −log10 of the molar value. Entries after “also recorded” stand apart in the source; their conditions may differ. Where two headings read alike, the source gives them in different places.
Legend:
[1] = system: γ-aminobutyric acid aminotransferase (GABA-AT); settings: cited from earlier work
OAT = target: T1, OAT (Homo sapiens, UniProt P04181); settings: prior art, FIG. 1; cited from earlier work
T1 sequence (P04181 36-439 limits assumed): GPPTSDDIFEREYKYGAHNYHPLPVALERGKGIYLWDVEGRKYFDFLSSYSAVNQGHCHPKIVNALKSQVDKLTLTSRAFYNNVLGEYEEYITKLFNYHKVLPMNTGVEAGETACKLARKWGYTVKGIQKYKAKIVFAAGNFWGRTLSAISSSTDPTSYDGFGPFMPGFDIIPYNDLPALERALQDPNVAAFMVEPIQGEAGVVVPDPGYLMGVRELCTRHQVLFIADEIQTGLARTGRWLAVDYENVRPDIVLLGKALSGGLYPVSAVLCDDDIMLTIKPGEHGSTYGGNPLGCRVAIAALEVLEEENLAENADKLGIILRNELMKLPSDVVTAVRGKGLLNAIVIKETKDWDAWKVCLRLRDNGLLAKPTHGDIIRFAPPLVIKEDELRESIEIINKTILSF

CYP1A2 = settings: concentrations up to 100 μM, 3 days
GABAC = test: Binding to GABAC
alanine aminotransferase = test: Inhibition of alanine aminotransferase; type: biochemical; settings: even at 6 mM concentration
[2] = system: Salmonella typhimurium (TA98, TA100, TA1535, and TA1537) and Escherichia coli (WP2uvrA); test: In vitro bacterial reverse mutation assay; settings: up to 5000 μg per plate, presence or absence of S9
GABAA = test: Binding to GABAA
CYP3A4/5 = test: CYP inhibition in human liver microsomes; type: in vitro ADME; settings: 0.1 to 100 μM
[3] = system: human peripheral blood lymphocytes (HPBL); test: In vitro mammalian chromosome aberration test; type: cell-based; settings: 535, 1070, and 2140 μg/mL, absence and presence of S9
Method: CPP-115 was tested in the in vitro mammalian chromosome aberration test using human peripheral blood lymphocytes (HPBL) in both the absence and presence of an Aroclor-induced rat liver S9 metabolic activation system.

[4] = 4-week oral (gavage) toxicology/toxicokinetic study in dogs
Method: Dogs received test article once daily for at least 4 weeks at a dose volume of 7 mL/kg followed by a 4-week recovery period.
Assessment of toxicity was based on mortality, clinical observations, body weights, body weight gain, food consumption, physical examinations, vital signs (heart rate, respiration, and body temperature), ophthalmology examinations, electrocardiogram examinations, clinical and anatomic pathology, and left eye evaluation.

[5] = system: Cerep panel of 111 pharmacological targets; test: Cerep panel
[6] = 4-week oral (gavage) toxicology/toxicokinetic study in rats
Method: Rats received test article once daily for at least 4 weeks at a dose volume of 10 mL/kg followed by a 4-week recovery period.

[7] = in vivo
Method: Each dose cohort consisted of 8 subjects. […] Subjects were followed for safety for a 30-day period after receiving their single dose of study treatment.
Dose escalation can continue until completion of the 500 mg dose cohort.

[8] = system: aspartate aminotransferase; test: Inhibition of aspartate aminotransferase; type: biochemical; settings: even at 6 mM concentration
[9] = system: three human GABA transporters; test: Binding to GABA transporters (summary statement)
Hep3B cells = test: Alpha-fetoprotein (AFP) secretion in HCC cells; type: cell-based, human
[10] = system: γ-aminobutyric acid aminotransferase (GABA-AT); test: Inhibition/inactivation of GABA-AT; type: biochemical
HepG2 = test: Suppression of AFP levels in HCC cells; type: cell-based; settings: HepG2, data not shown
[11] = target: T2, ornithine aminotransferase (OAT) (Homo sapiens, UniProt P04181); test: Time-dependent inactivation of OAT and dialysis of the inactivated enzyme; type: biochemical; settings: no activity returned upon dialysis for 48 h
T2 sequence (P04181 36-439 limits assumed): T1 sequence (P04181 36-439 limits assumed)
Method: OAT activity assays were carried out using as follows.
OAT incubated without the inactivator serves as a control. After 24 h, the enzyme solutions are transferred to a D-Tube™ Mini dialyzer and exhaustively dialyzed against the buffer (100 mM pyrophosphate buffer containing 0.1 mM alpha-ketoglutarate and 0.1 mM PLP, pH 8.0) at 4° C. protected from light. The dialysis buffer is exchanged three times every 4 h and left overnight. After 48 h of dialysis, the remaining OAT activity in each of the solutions is assayed.
For the determination of KI and kinact values, the natural logarithm of the percentage of remaining OAT activity is plotted against the pre-incubation time at each inhibitor concentration to obtain the kobs (slope) value for each concentration. The kobs is the rate constant describing the inactivation at each inhibitor concentration. kobs is re-plotted against the inhibitor concentration using nonlinear regression analysis (Graph-Pad Prism 6; GraphPad Software Inc.). kinact and the KI were estimated from the equation below: […], where kinact is the maximal rate of inactivation, KI is the inhibitor concentration required for half-maximal inactivation, and [I] is the pre-incubation concentration of inhibitor. […] The initial rate constants for the inactivation at various concentrations of the two compounds are determined using nonlinear regression analysis.

Safety of 13 in mice = type: in vivo, C57Bl/6 mice; settings: 0.5-5 mg/kg, two doses on days 1 and 4, tested a week later; data not shown
[12] = target: T2, ornithine aminotransferase (OAT); test: Continuous coupled OAT assay (PYCR1/NADH), inhibition of OAT; type: biochemical; settings: FIG. 2
Source text: With these two assays in hand, the activity of a variety of compounds made previously as potential inhibitors of GABA-AT were investigated.

[13] = system: hepatocellular carcinoma (HCC); settings: HCC patients, cited from earlier work; for response rates: single agent
[14] = rat, in vivo
Method: At the conclusion of dosing, rats entered a wash-out period (5-7 days) after which electroretinograms (ERGs) for scotopic (rod), mesopic (standard combined), photopic (cone), and 10 Hz and 15 Hz3 flicker ERG responses were collected for both eyes from each rat.
Quantitative histological examinations of retinas of the rats from this study were also carried out. Cone receptors were stained with a cone arrestin antibody and counterstained with a red stain for visualization and counting. Retinal sections were also stained with H&E and the ONL nuclei counts and ONL thicknesses were determined.

PLC/PRF/5 [15] = test: HCC proliferation, 3H-thymidine assay; type: cell-based; settings: PLC/PRF/5, 48 h after exposure to 20 mM gabaculine
Hep3B = test: HCC proliferation, 3H-thymidine assay; type: cell-based, human; settings: 48 h after exposure to 20 mM gabaculine
HepA1-6 [16] = test: HCC proliferation, 3H-thymidine assay; type: cell-based; settings: HepA1-6, 48 h after exposure to 20 mM gabaculine
[17] = system: human hepatoma Hep3B cells; test: Effect of gabaculine on HCC growth in vivo; design: species or system Athymic Balb/C mice
Method: (§1) Alpha-fetoprotein (AFP) secretion was evaluated as a biomarker for HCC. […] Within seven days of a single dose to HCC-harboring mice, AFP serum levels decreased by 92% in comparison with a 9.7 fold increase in controls (FIG. 5C).
Athymic Balb/C mice were conditioned with sub-lethal radiation (400 cGy). At 24 h after irradiation, animals were injected subcutaneously at the right shoulder with 5×10^6 human hepatoma Hep3B cells. Blood samples were obtained weekly by retrobulbar puncture, and serum was separated and frozen at −20° C. until assayed. On day 45 the mice were divided into two groups (n=8 per treated and controls) and baseline serum AFP was measured. […] Mice in the control group were injected with saline. AFP serum levels, which correlate with tumor growth, were measured on day 52 using a standard Elisa test.

PLC/PRF/5 [18] = test: Alpha-fetoprotein (AFP) secretion in HCC cells; type: cell-based
HepA1-6 [19] = test: Alpha-fetoprotein (AFP) secretion in HCC cells; type: cell-based
Method: as §1

C#CC(N)CCC(=O)O (stereo not drawn) [4-aminohex-5-ynoic acid]
inactivation/inhibition of GABA-AT (known compounds) ([1]; prior art, FIG. 1): inactivators of GABA-AT
inactivation/inhibition of OAT (known compounds) (OAT): also inactivate OAT with equal potency

NC(CF)CC[C@H](N)C(=O)O (stereo partly drawn) [5-Fluoromethylornithine]
inactivation/inhibition of OAT (known compounds) (OAT): irreversible inhibitors of OAT

N[C@H]1C[C@@H](C(=O)O)CC1=C(F)F [CPP-115, (1S,3S)-3-amino-4-difluoromethylenyl-1-cyclopentanoic acid]
induction of CYP1A2 activity (CYP1A2): not an inducer
binding to GABAC (GABAC): does not bind
inhibition of alanine aminotransferase (alanine aminotransferase): does not inhibit
mutagenicity (reverse mutations) [2]: not mutagenic; also recorded: no mutations
binding to GABAA (GABAA): does not bind
direct inhibition of CYP3A4/5 (CYP3A4/5): little or no evidence of direct inhibition
chromosome aberrations [3]: not elastogenic; also recorded: no mutations or chromosomal aberrations
Human Equivalent Dose [HED] of NOAEL ([4]; dogs): 1.24 mg/kg/day
no-observed-effect-level (NOEL) ([4]; females): 0.7 mg/kg/day
no-observed-effect-level (NOEL) ([4]; males): 2.3 mg/kg/day
activity in the Cerep panel of 111 pharmacological targets [5]: not active
increases in Cmax and AUC0-t with dose ([6]; 2, 6, 20 mg/kg/day oral): generally dose proportional
adverse microscopic finding ([6]; 6 or 20 mg/kg/day, dosing and recovery phases): retinal dysplasia
hepatic extraction and tissue distribution ([6]; after oral administration): may not be highly extracted by the liver and may highly distribute to the tissues
accumulation after multiple dosing ([6]; oral once daily, 4 weeks): No accumulation
Human Equivalent Dose [HED] of NOAEL ([6]; rats): 0.96 mg/kg/day
elimination half-life ([7]; human, po): 4 to 6 h
AUCs versus dose [7]: greater than proportional increase
cmax versus dose [7]: increased in a dose proportional manner
time to peak blood concentration ([7]; po): approximately 30 minutes
inhibition of aspartate aminotransferase [8]: does not inhibit
binding to three human GABA transporters [9]: does not bind

COc1ccc(CN2C(=O)[C@H]3CC(=C(F)F)[C@@H]2C3)cc1 [Compound 13]
suppression of AFP levels / HCC tumor growth in vitro (Hep3B cells; Hep3B, data not shown): profound suppression
inhibition of GABA-AT ([10]; even at 10 mM concentration): does not inhibit GABA-AT
suppression of AFP levels / HCC tumor growth in vitro (HepG2): profound suppression
efficiency/potency as time-dependent irreversible inhibitor (inactivator) of OAT [11]: most efficient
liver enzymes, weight, behavior, and fur look (Safety of 13 in mice): none of the tested doses were there any notable effects
pKi [12]: 5.52
inhibition of / binding to OAT, in words [12]: most potent inhibitor

NC1CC(C(=O)O)CC1=C(Cl)Cl (stereo not drawn) [Compound 18]
binding to GABA-AT [10]: very weak binder
inhibition of / binding to OAT, in words [12]: very weak binder

Cl.N[C@H]1C[C@@H](C(=O)O)C/C1=C\F [Compound 20, (E)-(1S,3S)-3-Amino-4-fluoromethylenyl-1-cyclopentanoic acid, hydrochloride salt]
time-dependent inhibition of GABA-AT [10]: potent time-dependent inhibitors of GABA-AT

Cl.N[C@H]1C[C@@H](C(=O)O)C/C1=C/F [Compound 22, (Z)-(1S,3S)-3-Amino-4-fluoromethylenyl-1-cyclopentanoic acid, hydrochloride salt]
time-dependent inhibition of GABA-AT [10]: potent time-dependent inhibitors of GABA-AT

NCCCC(=O)O [GABA, γ-aminobutyric acid]
inactivation/inhibition of OAT (known compounds) (OAT): competitive inhibitor of OAT

NOCC[C@H](N)C(=O)O [L-canaline]
inactivation/inhibition of OAT (known compounds) (OAT): irreversible inhibitors of OAT

CCCCCOC(=O)Nc1nc(=O)n([C@@H]2O[C@H](C)[C@@H](O)[C@H]2O)cc1F [capecitabine]
response rates in clinical trials [13]: low and short term

N.N.[Cl][Pt][Cl] [cisplatin]
response rates [13]: about 10%

COc1cccc2c1C(=O)c1c(O)c3c(c(O)c1C2=O)C[C@@](O)(C(=O)CO)C[C@@H]3O[C@H]1C[C@H](N)[C@H](O)[C@H](C)O1 [doxorubicin]
response rates [13]: about 10%

O=c1[nH]cc(F)c(=O)[nH]1 [fluorouracil]
response rates [13]: about 10%

Nc1ccn([C@@H]2O[C@H](CO)[C@@H](O)C2(F)F)c(=O)n1 [gemcitabine]
response rates in clinical trials [13]: low and short term

C=CC(N)CCC(=O)O (stereo not drawn) [vigabatrin, Vigabatrin, reference compound]
cone receptor counts [14]: no statistically significant change
inactivation/inhibition of OAT (known compounds) (OAT): does not inactivate OAT

Gabaculine
decrease of AFP secretion (Hep3B cells; Hep3B cells): 20%
suppression of proliferation (PLC/PRF/5 [15]): 46-51%
suppression of proliferation (Hep3B): 46-51%
suppression of proliferation (HepA1-6 [16]): 46-51%
inactivation/inhibition of GABA-AT (known compounds) [1]: inactivators of GABA-AT
tumor growth in vivo ([17]; HCC-harboring mice): significantly suppressed tumor growth in vivo
decrease of AFP serum levels ([17]; within seven days of a single dose (500 microgram/kg i.p.)): 92%
AFP suppression (PLC/PRF/5 [18]): No significant differences
AFP suppression (HepA1-6 [19]): No significant differences
